Source: patent US12441695B2, “Substituted thiadiazinone dioxide and preparation method therefor, herbicidal composition, and application therefor” (Qingdao Kingagroot Chemical Compound Co., Ltd., priority 2019, dated 2025)

Assays:
[1] = tested on: gramineous weeds; conditions: in vivo; cited from earlier work
[2] = tested on: monocotyledonous and dicotyledonous weeds; assay: Experiment on weeding effect in post-emergence stage (weeds); assay type: in vivo; conditions: 600 g/ha active ingredient plus water 450 kg/ha, 3 weeks after application, fresh weight control rate; for Amaranthus retroflexus activity level (growth control rate): fomesafen-resistant Amaranthus retroflexus
In short: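 Greenhouse pot-grown weeds and crops sprayed post-emergence 2–3 weeks after sowing with compound in acetone/Tween 80/water. Fresh-weight growth control scored after 3 weeks on a 0–5 scale (5: >85%, 0: <5%).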

[3] = tested on: major crops (wheat, corn, rice, soybean, cotton, oilseed rape, millet, sorghum); assay: Experiment on weeding effect in post-emergence stage (crops); assay type: in vivo; conditions: 600 g/ha active ingredient plus water 450 kg/ha, 3 weeks after application; for corn plant damage level (growth control rate): crop corn; for rice plant damage level (growth control rate): crop rice; for soybean plant damage level (growth control rate): crop soybean
In short: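 Weed and crop seeds were sown in soil-filled pots, covered with 0.5–2 cm soil and grown in a greenhouse. Plants were sprayed 2–3 weeks after sowing using a spray tower, with compound dissolved in acetone plus Tween 80 and diluted in water. Effect was expressed as fresh-weight growth control rate.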

Compound | effect on gramineous weeds [1] | Amaranthus retroflexus activity level (growth control rate) [2] | Echinochloa crus-galli activity level (growth control rate) [2] | Setaria viridis activity level (growth control rate) [2] | corn plant damage level (growth control rate) [3] | rice plant damage level (growth control rate) [3] | soybean plant damage level (growth control rate) [3] | Digitaria sanguinalis activity level (growth control rate) [2]
CC(C)N1C(=O)c2ccccc2NS1(=O)=O [bentazone] | ineffective |  |  |  |  |  |  | 
CC(=O)N1c2ccc(F)cc2C(=O)N(C(C)C)S1(=O)=O [Compound 62] |  | 5 (Level 5: growth control rate is above 85%) | 3 (Level 3: growth control rate is greater than or equal to 40% and less than 60%) | 3 (Level 3: growth control rate is greater than or equal to 40% and less than 60%) | 0 (Level 0: growth control rate is less than 5%) | 0 (Level 0: growth control rate is less than 5%) | 0 (Level 0: growth control rate is less than 5%) | 
CC(C)OC(=O)N1c2c(F)cc(F)cc2C(=O)N(C(C)C)S1(=O)=O [Compound 219] |  | 5 (Level 5: growth control rate is above 85%) | 5 (Level 5: growth control rate is above 85%) | 5 (Level 5: growth control rate is above 85%) | 1 (Level 1: growth control rate is greater than or equal to 500 and less than 200%) |  |  | 3 (Level 3: growth control rate is greater than or equal to 40% and less than 60%)
CCCCCCCCSC(=O)N1c2ccc(F)cc2C(=O)N(C(C)C)S1(=O)=O [Compound 189] |  | 4 (Level 4: growth control rate is greater than or equal to 60% and less than 85%) |  |  | 0 (Level 0: growth control rate is less than 5%) | 0 (Level 0: growth control rate is less than 5%) | 0 (Level 0: growth control rate is less than 5%) | 
